This is an account of results in ChEMBL document CHEMBL1764977, “Anti-tumor and anti-leishmanial evaluations of 1,3,4-oxadiazine, pyran derivatives derived from cross-coupling reactions of β-bromo-6H-1,3,4-oxadiazine derivatives” (2011).

Each structure is given as a SMILES string.

What all share (assay type): functional
The test system of one assay is MCF7. Kind of assay: Growth inhibition of human MCF7 cells after 48 hrs by sulforhodamine B assay. Particulars: MCF7, 48 h.
In a further assay the test system is NCI-H460. In words: Growth inhibition of human NCI-H460 cells after 48 hrs by sulforhodamine B assay. Particulars: NCI-H460, 48 h.
In the next assay the test system is SF-268. Kind of assay: Growth inhibition of human SF268 cells after 48 hrs by sulforhodamine B assay. As to conditions: SF-268, 48 h.
The subject of the next assay is Leishmania donovani. In words: Antileishmanial activity against Leishmania donovani axenic amastigotes infected in human THP1 cells assessed as growth inhibition at 50 uM. Particulars: THP-1, read-out: GI.
A further assay relates to THP-1. Kind of assay: Growth inhibition of human THP1 cells after 48 hrs by sulforhodamine B assay. As to conditions: THP-1, 48 h.

`N#CCC1=NN=C(c2ccc(Br)cc2)CO1`: the GI50 in the assay on MCF7 turned out to be 1.5 µM; in the assay on NCI-H460 it was 0.9 µM; in the assay on SF-268 it was 10.3 µM. In addition, the inhibition of growth at 50 µM with Leishmania donovani came to 26%.
On to `N#CCC1=NN=C(c2ccc([N+](=O)[O-])cc2)C(Br)O1` (stereo not given), for which the GI50 is 10.6 µM in the assay on MCF7, 8.5 µM in the assay with NCI-H460, 6.7 µM in the assay on SF-268 and 22 µM in the assay with THP-1. In addition, the inhibition of growth at 50 µM in the assay on Leishmania donovani is 58%.
Take `N#CCC1=NN=C(c2ccc(Br)cc2)C(Br)O1` (stereo not given): the GI50 in the assay on MCF7 turned out to be 70.7 µM; in the assay on NCI-H460, 38.2 µM; in the assay on SF-268, 32 µM. In the assay with Leishmania donovani, the inhibition of growth at 50 µM amounted to 40%.
With `C[C@@H]1[C@H](O)[C@@H](C)/C=C/C=C/C=C/C=C/C=C/C=C/C=C/[C@H](O[C@@H]2O[C@H](C)[C@@H](O)[C@H](N)[C@@H]2O)C[C@@H]2O[C@](O)(C[C@@H](O)C[C@@H](O)[C@H](O)CC[C@@H](O)C[C@@H](O)CC(=O)O[C@H]1C)C[C@H](O)[C@H]2C(=O)O` [AMPHOTERICIN B], the inhibition of growth at 50 µM in the assay with Leishmania donovani came to 95%.
Consider `N#CCC1=C(C#N)CC(c2ccc([N+](=O)[O-])cc2)=C(CC(=O)c2ccc(Br)cc2)O1`, for which the 50% growth inhibitory concentration (GI50) in the assay on MCF7 worked out at 4.9 µM; in the assay with NCI-H460, 3.6 µM; with SF-268 it was 2.8 µM; in the assay on THP-1 it was 26 µM. The inhibition of growth at 50 µM with Leishmania donovani is 82%.
As to `N#CCC(=O)N/N=C(/CBr)c1ccc([N+](=O)[O-])cc1`, the GI50 with MCF7 was 18.4 µM; in the assay with NCI-H460 it was 10.3 µM; with SF-268, 14 µM. In the assay with Leishmania donovani, the inhibition of growth at 50 µM was found to be 35%.
`N#CCC1=NN=C(c2ccc(Br)cc2)C(CC(=O)c2ccc([N+](=O)[O-])cc2)O1` (stereo not given): the GI50 in the assay on MCF7 worked out at 32 µM; in the assay with NCI-H460 it was 23 µM; in the assay on SF-268 it was 18.5 µM; in the assay on THP-1 it was 20 µM. The inhibition of growth at 50 µM in the assay on Leishmania donovani was 60%.
On to `N#CCC1=C(C#N)CC(c2ccc(Br)cc2)=C(CC(=O)c2ccc(Br)cc2)O1`, for which the results for the concentration for 50% growth inhibition (GI50) in the assay on MCF7, with NCI-H460 and in the assay with SF-268 were 12 µM, 10.4 µM and 8.2 µM, respectively. In the assay with Leishmania donovani, the inhibition of growth at 50 µM was 60%.
As to `N#CCC1=NN=C(c2ccc([N+](=O)[O-])cc2)CO1`, the GI50 worked out at 0.001 µM in the assay with MCF7, 0.002 µM with NCI-H460 and 1.8 µM in the assay with SF-268. The inhibition of growth at 50 µM in the assay with Leishmania donovani worked out at 44%.
For `N#CCC1=C(C#N)CC(c2ccc(Br)cc2)=C(CC(=O)c2ccc([N+](=O)[O-])cc2)O1`, the GI50 in the assay with MCF7 was determined as 0.09 µM; in the assay with NCI-H460 it was 0.01 µM; with SF-268 it was 0.003 µM; in the assay with THP-1, 12.9 µM. Besides, the inhibition of growth at 50 µM in the assay with Leishmania donovani was 90%.
Consider `COc1cccc2c1C(=O)c1c(O)c3c(c(O)c1C2=O)C[C@@](O)(C(=O)CO)C[C@@H]3O[C@H]1C[C@H](N)[C@H](O)[C@H](C)O1` [DOXORUBICIN], for which the GI50 in the assay with NCI-H460 and with SF-268 was 0.094 µM throughout.
In the case of `N#CCC1=NN=C(c2ccc(Br)cc2)C(CC(=O)c2ccc(Br)cc2)O1` (stereo not given), the 50% growth inhibitory concentration (GI50) is 30.4 µM with MCF7, 22.1 µM in the assay on NCI-H460 and 16.9 µM in the assay with SF-268. In addition, the inhibition of growth at 50 µM in the assay on Leishmania donovani came out at 48%.
For `N#CCC1=NN=C(c2ccc([N+](=O)[O-])cc2)C(CC(=O)c2ccc(Br)cc2)O1` (stereo not given), the GI50 in the assay on MCF7 was determined as 36 µM; in the assay with NCI-H460, 40 µM; in the assay with SF-268, 16.5 µM. Besides, the inhibition of growth at 50 µM with Leishmania donovani is 73%.
For `N#CCC1=NN=C(c2ccc([N+](=O)[O-])cc2)C(CC(=O)c2ccc([N+](=O)[O-])cc2)O1` (stereo not given), the GI50 in the assay with MCF7 is 1.6 µM; with NCI-H460, 2.6 µM; with SF-268, 2 µM; with THP-1 it was 33 µM. Further, in the assay with Leishmania donovani, the inhibition of growth at 50 µM turned out to be 88%.
As for `N#CCC1=C(C#N)CC(c2ccc([N+](=O)[O-])cc2)=C(CC(=O)c2ccc([N+](=O)[O-])cc2)O1`, the GI50 came to 0.03 µM in the assay with MCF7, 0.08 µM with NCI-H460, 0.005 µM in the assay on SF-268 and 10.2 µM in the assay with THP-1. For the same compound, the inhibition of growth at 50 µM with Leishmania donovani came out at 98%.
As for `N#CCC(=O)N/N=C(/CBr)c1ccc(Br)cc1`, the GI50 amounted to 40.6 µM in the assay with MCF7, 10 µM with NCI-H460 and 12.8 µM in the assay with SF-268. For the same compound, in the assay with Leishmania donovani, the inhibition of growth at 50 µM is 20%.
